# In BindingDB's records for doi:10.7270/Q2NS0S8J (University of Pittsburgh, 2007):
# Target: T1, M-phase inducer phosphatase 2 (Homo sapiens, UniProt P30305)
# T1 sequence (P30305 whole entry): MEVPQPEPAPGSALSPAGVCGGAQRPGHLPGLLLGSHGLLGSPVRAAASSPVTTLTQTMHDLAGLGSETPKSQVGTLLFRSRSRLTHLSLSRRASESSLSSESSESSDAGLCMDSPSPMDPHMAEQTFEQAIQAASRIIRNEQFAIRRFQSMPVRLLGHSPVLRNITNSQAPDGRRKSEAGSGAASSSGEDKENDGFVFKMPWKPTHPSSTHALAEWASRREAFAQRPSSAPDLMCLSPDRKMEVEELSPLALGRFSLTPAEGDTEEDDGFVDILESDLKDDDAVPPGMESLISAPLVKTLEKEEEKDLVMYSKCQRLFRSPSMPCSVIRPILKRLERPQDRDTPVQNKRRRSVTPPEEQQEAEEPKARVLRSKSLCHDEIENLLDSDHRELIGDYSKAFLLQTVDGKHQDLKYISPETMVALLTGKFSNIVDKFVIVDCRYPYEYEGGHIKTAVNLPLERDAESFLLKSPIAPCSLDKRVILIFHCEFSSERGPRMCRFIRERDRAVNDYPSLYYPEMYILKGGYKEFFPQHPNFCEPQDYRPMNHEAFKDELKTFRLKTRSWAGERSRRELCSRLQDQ
# Assay: Cdc25B phosphatase blockers with beta-mercaptoethanol – biochemical, beta-mercaptoethanol present, catalytic domain, IC50, Cdc25B inhibitor project, late-stage follow-up (AID 670)
row,IC50 [µM],SMILES
1,> 50,"O=C(NC1(O)C(=O)c2ccccc2C1=O)c1ccccc1 [N-(2-hydroxy-1,3-dioxo-2-indenyl)benzamide]"
2,> 50,N#Cc1c(N2CCCC2)nc(N)c2c(N)nc(N3CCCC3)cc12 [SMR000061605]
3,33.1,"N#Cc1c(N)sc(=S)c2c1CCN(Cc1ccccc1)C2 [3-Amino-7-benzyl-1-thioxo-5,6,7,8-tetrahydro-1H-thiopyrano[3,4-c]pyridine-4-carbonitrile]"
4,10.3,c1ccc(CSc2nnc(-c3ccco3)c(-c3ccco3)n2)cc1 [MLS-0029114.0001]
5,> 50,Cc1ccccc1Nc1cc2ccccc2c(O)n1 [3-[(2-methylphenyl)amino]-2H-isoquinolin-1-one]
6,> 50,Nc1cccc2cnccc12 [isoquinolin-5-amine]
7,> 50,[O-]/[N+](=C\c1ccncc1)c1ccccc1
8,> 50,[O-]/[N+](=C\c1ccc(OC(F)F)cc1)c1ccccc1 [1-[4-(difluoromethoxy)phenyl]-N-phenylmethanimine oxide]
9,> 50,"O=C1Cc2ccccc2C(=O)N1CCc1ccccc1 [2-(2-phenylethyl)-4H-isoquinoline-1,3-dione]"
10,19.2,O=C(Nc1ccc2nc(-c3ccco3)c(-c3ccco3)nc2c1)N1CCCCCC1
11,> 50,Oc1nc(Nc2ccccc2)cc2ccccc12 [MLS000043701]
12,5.2,Cc1ccc2c(c1)C1C=CCC1C(C(=O)O)N2 (stereo not given) [MLS-0067149.0001]
13,> 50,Cc1c(N=c2c(=O)c3ccccc3c2=O)c(=O)n(-c2ccccc2)n1C [MLS000105950]
14,> 50,COc1ccc2noc3c2c1C(=O)c1ccccc1-3 [MLS000106874]
15,> 50,CCOc1ccc2noc3c2c1C(=O)c1ccccc1-3 [MLS000106837]
16,7.42,O=C(O)C1Nc2c(O)cccc2C2C=CCC12 (stereo not given)
17,> 50,CCOC(=O)C(C(=O)OCC)c1cc(Br)c2noc3c2c1C(=O)c1ccccc1-3 [MLS000038842]
18,4.2,Cc1ccc2c(c1C)NC(C(=O)O)C1CC=CC21 (stereo not given)
19,6.35,COc1cccc2c(C)c(C(=O)O)[nH]c12
20,1.78,"COc1ccc(Br)cc1C=c1sc2nc(-c3ccco3)nn2c1=O [5-[(5-bromanyl-2-methoxy-phenyl)methylidene]-2-(furan-2-yl)-[1,3]thiazolo[3,2-b][1,2,4]triazol-6-one]"

row,SMILES,IC50 [µM]
1,"CC(=O)Nc1cc(OC(C)=O)c2nonc2c1OC(C)=O [Acetic acid 7-acetoxy-5-acetylamino-benzo[1,2,5]oxadiazol-4-yl ester]",> 50
2,"CCn1nc(-c2cccs2)nc2c(=O)n(C)c(=O)nc1-2 [1-ethyl-6-methyl-3-thiophen-2-yl-pyrimido[5,4-e][1,2,4]triazine-5,7-dione]",41.8
3,"O=C1C=Cc2ccccc2C1=O [1,2-dihydronaphthalene-1,2-dione]",20.4
4,"CCn1nc(-c2ccccc2)nc2c(=O)n(C)c(=O)nc1-2 [1-Ethyl-6-methyl-3-phenyl-1H-pyrimido[5,4-e][1,2,4]triazine-5,7-dione]",> 50
5,Cn1ncnc2c(=O)n(C)c(=O)nc1-2,32.4
